Results as given in US20080261291A1 (priority 2004, published 2008).

Tested on: hairy scalp of men with premature alopecia
Conditions: 0.5% in excipient, 0.5 to 1 ml on the head scalp, one week
Description: It is wanted to evaluate the genin of Calocarpum, (Chrysophyllum or Lucuma) as obtained of the example 6 according to this invention, as capillary rubefacient agent for which six affected gentlemen of premature alopecia are tried, to witch are requested to subject themselves to one weeks of test, which consists on being applied from 0.5 to 1 ml of the diluted products in test in the affected area of the head scalp in the clean skin. The two men of the group #1, receives the mixture of genin of Calocarpum, in a preparation consisting on the product as obtained of the example 6, to 0.5% in an excipient. The excipient composition for 100 g is: water 20 g, propyleneglycol 25 g, sunflower oil 54.5 g. The two men of the group #2, receives the same composition of the previous excipient and resorcinol to 0.5%. The two men of the group #3, receives the before mentioned excipient alone. The following questionnaire is registered and the pertinent observations of the test are made.
Age; sex; since when they present the alopecia; duration of the applied treatment; 1.—Was the treatment irritating: a) it was not irritating, b) light, c) moderate, d) high, e) severe. 2.—Irritation type: a) hyperaemia (heat), b) inflammation, c) vesicatión (it produces blisters) 3.—keratolytic (desquamation production): a) without effect, b) light, c) moderate, d) extensive. […]

How did the “keratolysis (desquamation production)” value turn out when `Oc1cccc(O)c1` [resorcinol] was run?
The value was “moderate keratolysis”.
